Key:
ECM6711 (pUCP24-VIM-1) = test: microbe, parasite or virus in culture; format: cell-based, E. coli; details: VIM-1 producing strain; compound fixed 4 μg/ml or 8 μg/ml
ECM6703 (pUCP24-NDM-1) = test: microbe, parasite or virus in culture; format: cell-based, E. coli; details: NDM-1 producing strain; compound fixed 4 μg/ml or 8 μg/ml
KPC-2 [1] = molecular target: T1, KPC-2 (Klebsiella pneumoniae, UniProt Q9F663); test: Inhibition of purified class A carbapenemase, biapenem cleavage; format: biochemical; details: substrate biapenem 100 μM
T1 sequence (Q9F663 25-293, looked up, species assumed): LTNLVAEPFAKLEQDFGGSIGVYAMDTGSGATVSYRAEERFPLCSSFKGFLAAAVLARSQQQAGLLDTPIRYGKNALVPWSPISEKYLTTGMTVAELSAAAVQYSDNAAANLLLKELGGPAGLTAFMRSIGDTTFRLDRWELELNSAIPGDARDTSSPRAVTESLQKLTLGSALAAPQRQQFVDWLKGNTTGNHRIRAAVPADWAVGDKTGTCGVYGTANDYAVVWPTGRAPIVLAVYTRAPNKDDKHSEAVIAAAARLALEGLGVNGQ

KPC-2 [2] = molecular target: T1, KPC-2; test: Inhibition of purified beta-lactamase, nitrocefin cleavage; format: biochemical; details: read-out: Ki (KPC-2, NCF)
Experimental: Purified enzymes were mixed with various concentrations of inhibitors in reaction buffer and incubated for 10 min at room temperature. Nitrocefin was added and substrate cleavage profiles were recorded at 490 nm every 10 sec for 10 min.

[3] = system: panel of clinical isolates expressing class A, B and D carbapenemases; test: Carbapenem potentiation MIC, whole panel; format: cell-based; details: all strains of the panel; compound fixed 5 μg/ml
Source text: The results are present in Table 6.
The results are present in Table 7.

O=C(O)c1cccc2c1OB(O)[C@@H](Sc1nncs1)C2 [Compound 1, (R)-3-(1,3,4-thiadiazol-2-ylthio)-2-hydroxy-3,4-dihydro-2H-benzo[e][1,2]oxaborinine-8-carboxylic acid]
imipenem MIC in the presence of compound (ECM6711 (pUCP24-VIM-1)): decreased to the level of the strain containing empty vector
imipenem MIC in the presence of compound (ECM6703 (pUCP24-NDM-1)): decreased to the level of the strain containing empty vector
Ki (KPC-2 [1]): 10 to 100 nM
Ki (KPC-2 [2]): 100 to 1000 nM
carbapenem MIC in the presence of compound [3]: significantly reduced
